Results published in patent publication US20150104868A1, “Methods of Maintaining and Improving Biological Cell Function and Activity” (GARGILL INCORPORATED, priority 2012, published 2015).

Test system: CRL 1730 HUVECs
Assay: Microarray transcriptomics of HUVEC (HGERT/HG, HG/NG)
Format: cell-based, human
[1] = Atherosclerosis, ATP binding and metabolism
[2] = Atherosclerosis, Cysteine/gluathione
[3] = Atherosclerosis, Cytokine activity
[4] = Atherosclerosis, Endothelial cell related
[5] = Atherosclerosis, Heat shock protein
[6] = Atherosclerosis, NF-kappaB transcription
[7] = Atherosclerosis, Nitric oxide synthase activity
[8] = Atherosclerosis, Peptidase activity
[9] = Atherosclerosis, Plasminogen activators
[10] = Atherosclerosis, Reactive oxygen species

OC[C@@H](O)[C@@H](O)CO [ERT, meso-1,2,3,4-tetrahydroxybutane]
HGERT/HG ABCB10 (ATP-binding cassette, sub-family B (MDR/TAP), member 10) [1]: 0.98 Ω | HGERT/HG ACTL6A (Actin-like 6A) [1]: 0.98 Ω | HGERT/HG ACTR5 (ARP5 actin-related protein 5 homolog (yeast)) [1]: Ψ 1.01 | HGERT/HG ATAD1 (ATPase family, AAA domain containing 1) [1]: 0.99 Ω | HGERT/HG ATAD3B (ATPase family, AAA domain containing 3B) [1]: Ψ 1.01 | HGERT/HG ATP2C1 (ATPase, Ca++ transporting, type 2C, member 1) [1]: 0.99 Ω | HGERT/HG ATP5E (ATP synthase, H+ transporting, mitochondrial F1 complex, epsilon subunit) [1]: 0.98 Ω | HGERT/HG ATP5O (ATP synthase, H+ transporting, mitochondrial Fl complex, O subunit) [1]: 1.00 Ω | HGERT/HG ATP13A1 (ATPase type 13A1) [1]: Ψ 1.02 | HGERT/HG C3orf26 (Chromosome 3 open reading frame 26) [1]: 0.99 Ω | HGERT/HG CARS (Cysteinyl-tRNA synthetase) [1]: 1.00 Ω | HGERT/HG CSNK1G1 (Casein kinase 1, gamma 1) [1]: Ψ 1.02 | HGERT/HG DCAKD (Dephospho-CoA kinase domain containing) [1]: Ψ 1.03 | HGERT/HG DDX54 (DEAD (Asp-Glu-Ala-Asp) box, polypeptide 54) [1]: 0.99 Ω | HGERT/HG FASTKD1 (FAST kinase domains 1) [1]: 0.99 Ω | HGERT/HG FASTKD3 (FAST kinase domains 3) [1]: 0.99 Ω | HGERT/HG HLTF (Helicase-like transcription factor) [1]: 0.99 Ω | HGERT/HG HSPE1 (Heat shock 10kDa protein 1 (chaperonin 10)) [1]: 0.99 Ω | HGERT/HG KIF1B (Kinesin family member 1B) [1]: Ψ 1.01 | HGERT/HG LIMK1 (LIM domain kinase 1) [1]: Ψ 1.01 | HGERT/HG LVN (V-yes-1 Yamaguchi sarcoma viral related oncogene homolog) [1]: Ψ 1.02 | HGERT/HG MAP4K3 (Mitogen-activated protein kinase kinase kinase kinase 3) [1]: 0.98 Ω | HGERT/HG MARK2 (MAP/microtubule affinity-regulating kinase 2) [1]: Ψ 1.03 | HGERT/HG RP2 (Retinitis pigmentosa 2 (X-linked recessive)) [1]: 0.99 Ω | HGERT/HG RPS6KA2 (Ribosomal protein S6 kinase, 90kDa, polypeptide 2) [1]: Ψ 1.01 | HGERT/HG SLK (STE20-like kinase) [1]: 0.99 Ω | HGERT/HG STK39 (Serine threonine kinase 39) [1]: 0.98 Ω | HGERT/HG SUCLA2 (Succinate-CoA ligase, ADP-forming, beta subunit) [1]: 0.99 Ω | HGERT/HG TRIT1 (TRNA isopentenyltransferase 1) [1]: 0.98 Ω | HGERT/HG VPS4B (Vacuolar protein sorting 4 homolog B (S. cerevisiae)) [1]: 0.99 Ω | HGERT/HG YME1L1 (YME1-like 1 (S. cerevisiae)) [1]: 1.00 Ω | HGERT/HG CORO1A (Coronin, actin binding protein, 1A) (Atherosclerosis, Actin binding): 0.94 Ω | HGERT/HG PLEC1 (Plectin) (Atherosclerosis, Actin binding): Ψ 1.03 | HGERT/HG AHCYL1 (Adenosylhomocysteinase-like 1) [2]: Ψ 1.01 | HGERT/HG ATIC (5-aminoimidazole-4-carboxamide ribonucleotide formyltransferase/IMP cyclohydrolase) [2]: 0.99 Ω | HGERT/HG ESD (Esterase D) [2]: 0.99 Ω | HGERT/HG BMP6 (Bone morphogenetic protein 6) [3]: Ψ 1.01 | HGERT/HG IL13RA1 (Interleukin 13 receptor, alpha 1) [3]: Ψ 1.02 | HGERT/HG IL17D (Interleukin 17D) [3]: 0.98 Ω | HGERT/HG ENG (Endoglin) [4]: Ψ 1.01 | HGERT/HG FOXC1 (Forkhead box C1) [4]: Ψ 1.01 | HGERT/HG GPR124 (G protein-coupled receptor 124) [4]: Ψ 1.02 | HGERT/HG HIG2 (Chromosome 7 open reading frame 68) [4]: Ψ 1.01 | HGERT/HG JUP (Junction plakoglobin) [4]: Ψ 1.01 | HGERT/HG KRIT1 (KRIT1, ankyrin repeat containing) [4]: 0.99 Ω | HGERT/HG NOTCH1 (Notch 1) [4]: Ψ 1.02 | HGERT/HG JUP (Junction plakoglobin) (Atherosclerosis, Endothelial cell-cell adhesion): Ψ 1.01 | HGERT/HG DNAJC8 (DnaJ (Hsp40) homolog, subfamily C, member 8) [5]: 0.99 Ω | HGERT/HG DNAJC11 (DnaJ (Hsp40) homolog, subfamily C, member 11) [5]: Ψ 1.01 | HGERT/HG COMMD7 (COMM domain containing 7) [6]: 0.99 Ω | HGERT/HG NDFIP2 (Nedd4 family interacting protein 2) [6]: 0.99 Ω | HGERT/HG PTPLAD1 (Protein tyrosine phosphatase-like A domain containing 1) [6]: Ψ 1.01 | HGERT/HG TP53BP2 (Tumor protein p53 binding protein, 2) [6]: Ψ 1.01 | HGERT/HG ACVR2A (Activin A receptor, type IIA) [7]: 0.99 Ω | HGERT/HG ENG (Endoglin) [7]: Ψ 1.01 | HGERT/HG HIG2 (Chromosome 7 open reading frame 68) [7]: Ψ 1.01 | HGERT/HG OSTM1 (Osteopetrosis associated transmembrane protein 1) (Atherosclerosis, Osteoclast differentiation): 0.99 Ω | HGERT/HG ATXN3 (Ataxin 3) [8]: 0.99 Ω | HGERT/HG OTUD5 (OTU domain containing 5) [8]: Ψ 1.01 | HGERT/HG SENP3 (SUMO1/sentrin/SMT3 specific peptidase 3) [8]: Ψ 1.01 | HGERT/HG WFDC12 (WAP four-disulfide core domain 12) [8]: 0.96 Ω | HGERT/HG PLSCR4 (Phospholipid scramblase 4) (Atherosclerosis, Phospholipid scramblase): 0.99 Ω | HGERT/HG BRD2 (Bromodomain containing 2) [9]: Ψ 1.02 | HGERT/HG RHOJ (Ras homolog gene family, member J) [9]: Ψ 1.02 | HGERT/HG COX8A (Cytochrome c oxidase subunit VIIIA (ubiquitous)) [10]: 0.99 Ω | HGERT/HG JUP (Junction plakoglobin) [10]: Ψ 1.01 | HGERT/HG MPHOSPH6 (M-phase phosphoprotein 6) [10]: 0.99 Ω | HGERT/HG SDHD (Succinate dehydrogenase complex, subunit D, integral membrane protein) [10]: 0.98 Ω | HGERT/HG SMOX (Spermine oxidase) [10]: 0.99 Ω | HGERT/HG SOS1 (Son of sevenless homolog 1 (Drosophila)) [10]: Ψ 1.06 | HGERT/HG TCF12 (Transcription factor 12) [10]: 0.99 Ω | HGERT/HG TGM2 (Transglutaminase 2 (C polypeptide, protein-glutamine-gamma-glutamyltransferase)) [10]: Ψ 1.01 | HGERT/HG PGRMC2 (Progesterone receptor membrane component 2) (Atherosclerosis, Steroid hormone receptor activity): 0.98 Ω | HGERT/HG ABCB10 (ATP-binding cassette, sub-family B (MDR/TAP), member 10) (Breast cancer, ATP metabolism): 0.98 Ω | HGERT/HG ACTL6A (Actin like 6A) (Breast cancer, ATP metabolism): 0.98 Ω | HGERT/HG ACTR5 (ARP5 actin-related protein 5 homolog (yeast)) (Breast cancer, ATP metabolism): Ψ 1.01 | HGERT/HG ATAD1 (ATPase family, AAA domain containing 1) (Breast cancer, ATP metabolism): 0.99 Ω | HGERT/HG ATAD38 (ATPase family, AAA domain containing 38) (Breast cancer, ATP metabolism): Ψ 1.01 | HGERT/HG ATP2C1 (ATPase, Ca++ transporting, type 2C, member 1) (Breast cancer, ATP metabolism): 0.99 Ω | HGERT/HG ATP5E (ATP synthase, H+ transporting, mitochondrial F1 complex, epsilon subunit) (Breast cancer, ATP metabolism): 0.99 Ω | HGERT/HG ATP5O (ATP synthase, H+ transporting, mitochondrial F1 complex, O subunite) (Breast cancer, ATP metabolism): Ψ 1.00 | HGERT/HG ATP13A1 (ATPase type 13A1) (Breast cancer, ATP metabolism): Ψ 1.02 | HGERT/HG C3orf26 (Chromosome 3 open reading frame 26) (Breast cancer, ATP metabolism): 0.99 Ω | HGERT/HG CARS (Cysteinyl-tRNA synthetase) (Breast cancer, ATP metabolism): 1.00 Ω | HGERT/HG CSNK1G1 (Casein kinase 1, gamma 1) (Breast cancer, ATP metabolism): Ψ 1.02 | HGERT/HG DCAKO (Dephospho-CoA kinase domain containing) (Breast cancer, ATP metabolism): Ψ 1.03 | HGERT/HG DDX54 (DEAD (Asp-Glu-Ala-Asp) box, polypeptide 54) (Breast cancer, ATP metabolism): 0.99 Ω | HGERT/HG FASTDK1 (FAST kinase domains 1) (Breast cancer, ATP metabolism): 0.99 Ω | HGERT/HG FASTKD3 (FAST kinase domains 1) (Breast cancer, ATP metabolism): 0.99 Ω | HGERT/HG HLTF (Helicase-like transcription factor) (Breast cancer, ATP metabolism): 0.99 Ω | HGERT/HG HSPE1 (Heat shock 10kDa protein 1 (chaperonin 10)) (Breast cancer, ATP metabolism): 0.99 Ω | HGERT/HG KF1B (Kinesin family member 1B) (Breast cancer, ATP metabolism): Ψ 1.01 | HGERT/HG LIMK1 (LIM domain kinase 1) (Breast cancer, ATP metabolism): Ψ 1.01 | HGERT/HG LYN (V-yes-1 Yamaguchi sarcoma viral related oncogene homolog) (Breast cancer, ATP metabolism): Ψ 1.02 | HGERT/HG MAP4K3 (Mitogen-activated protein kinase kinase kinase kinase 3) (Breast cancer, ATP metabolism): 0.98 Ω | HGERT/HG RP2 (Retinitis pigmentosa 2 (X-linked recessive)) (Breast cancer, ATP metabolism): 0.98 Ω | HGERT/HG SLK (STE20-like kinase) (Breast cancer, ATP metabolism): 0.99 Ω | HGERT/HG STK39 (Serine threonine kinase 39) (Breast cancer, ATP metabolism): 0.98 Ω | HGERT/HG SUCLA2 (Succinate-CoA ligase, ADP-forming, beta subunit) (Breast cancer, ATP metabolism): 0.99 Ω
